Source: ChEMBL document CHEMBL6096719, “Kidney Targeting Smart Antibiotic Discovery: Multimechanism Pleuromutilins for Pyelonephritis Therapy” (J Med Chem, 2025)
Active and inactive are the calls of the source. No cut-off for these calls is given here.

Assays:
[1] = Aqueous solubility of the compound incubated for 12 hrs by UV-Vis spectrophotometry; format: physicochemical; details: buffer
[2] = system: Staphylococcus aureus; test: Antibacterial activity against methicillin-resistant Staphylococcus aureus ATCC 43300 assessed as inhibition of bacterial growth incubated for 24 hrs by broth microdilution method; format: functional
[3] = system: Escherichia coli; test: Antibacterial activity against Escherichia coli CMCC 44103 assessed as inhibition of bacterial growth incubated for 24 hrs by broth microdilution method; format: functional
[4] = system: Staphylococcus aureus; test: Antibacterial activity against methicillin-resistant Staphylococcus aureus 171 assessed as inhibition of bacterial growth incubated for 24 hrs by broth microdilution method; format: functional
[5] = system: Enterococcus; test: Antibacterial activity against vancomycin-resistant Enterococcus 80 assessed as inhibition of bacterial growth incubated for 24 hrs by broth microdilution method; format: functional
[6] = system: Acinetobacter baumannii; test: Antibacterial activity against carbapenem-resistant Acinetobacter baumannii 882 assessed as inhibition of bacterial growth incubated for 24 hrs by broth microdilution method; format: functional
[7] = Cytotoxicity against human HepG2 cells assessed as reduction in cell viability incubated for 24 hrs by CCK8 assay; format: toxicity, cell-based
[8] = Cytotoxicity against human A549 cells assessed as reduction in cell viability incubated for 24 hrs by CCK8 assay; format: toxicity, cell-based
[9] = system: Mesomycoplasma hyorhinis; test: Anti-mycoplasma activity against Mycoplasma hyorhinis BTS-7 NCTC10130 assessed as inhibition of bacterial growth incubated for 3 to 5 days by broth microdilution method; format: functional; details: time 3-5 day
[10] = system: Mycoplasmopsis synoviae; test: Anti-mycoplasma activity against Mycoplasma synoviae WVU1853 NCTC10124 assessed as inhibition of bacterial growth incubated for 3 to 5 days by broth microdilution method; format: functional; details: time 3-5 day
[11] = system: Chlamydia pneumoniae; test: Anti-mycoplasma activity against Chlamydophila pneumoniae CWL-029 VR1310 assessed as inhibition of bacterial growth incubated for 3 to 5 days by broth microdilution method; format: functional; details: time 3-5 day
[12] = system: Chlamydia pneumoniae; test: Anti-mycoplasma activity against Chlamydophila pneumoniae TW183 VR-2282 assessed as inhibition of bacterial growth incubated for 3 to 5 days by broth microdilution method; format: functional; details: time 3-5 day
[13] = system: Mycoplasma genitalium; test: Anti-mycoplasma activity against Mycoplasma genitalium G37 ATCC33530 assessed as inhibition of bacterial growth incubated for 7 to 14 days by broth microdilution method; format: functional; details: Mycoplasmoides genitalium, time 7-14 day
[14] = system: Staphylococcus aureus; test: Antibiofilm activity against methicillin-resistant Staphylococcus aureus ATCC33591 assessed as disruption of preformed biofilms at 0.5 ug/ml incubated for 24 hrs with preformed biofilms by crystal violet staining based analysis; format: functional; details: dose 0.5 µg/ml
[15] = system: Escherichia coli; test: Antibiofilm activity against Escherichia coli ATCC25922 assessed as eradication of biofilms at 0.5 ug/ml incubated for 4 hrs by field emission scanning electron microscopy; format: functional, organism-based; details: dose 0.5 µg/ml
[16] = system: Cell membrane; test: Disruption of cell membrane in methicillin-resistant Staphylococcus aureus ATCC33591 assessed as induction of cell death by measuring increase in propidium iodide fluorescence intensity at 0.5 ug/ml incubated for 2 hrs by bright field microscopy; format: subcellular; details: dose 0.5 µg/ml
[17] = system: Cell membrane; test: Disruption of cell membrane in methicillin-resistant Staphylococcus aureus ATCC33591 assessed as induction of cell death by measuring increase in propidium iodide fluorescence intensity at 0.5 ug/ml incubated for 2 hrs by fluorescence field microscopy; format: subcellular; details: dose 0.5 µg/ml
[18] = system: Cell membrane; test: Disruption of cell membrane in methicillin-resistant Staphylococcus aureus ATCC33591 assessed as decrease in intracellular ATP content at 0.125 to 0.25 ug/ml incubated for 30 mins by luminescence based analysis; details: dose 0.125-0.25 µg/ml
[19] = system: Cell membrane; test: Disruption of cell membrane in Escherichia coli ATCC25922 assessed as decrease in intracellular ATP content at 0.125 to 0.25 ug/ml incubated for 30 mins by luminescence based analysis; details: dose 0.125-0.25 µg/ml
[20] = system: Cell membrane; test: Disruption of cell membrane in Escherichia coli ATCC25922 assessed as increase in extracellular ATP content at 0.125 to 0.25 ug/ml incubated for 30 mins by luminescence based analysis; details: dose 0.125-0.25 µg/ml
[21] = system: Cell membrane; test: Disruption of cell membrane in Escherichia coli ATCC25922 assessed as dissipation of membrane potential at 0.125 to 0.5 ug/ml incubated for 30 mins by DiBAC4(3) probe based fluorescence spectrophotometry; details: dose 0.125-0.5 µg/ml
[22] = system: Staphylococcus aureus; test: Antibacterial activity against methicillin-resistant Staphylococcus aureus ATCC33591 infected in systemic intraperitoneal infection Kunming mouse model assessed as increase in animal's survival rate at 5 to 20 mg/kg, ip treated at 1 hr post-infection and measured for 7 days; format: functional, organism-based; details: dose 5-20 mg/kg, time 7.0 day
[23] = system: Staphylococcus aureus; test: Antibacterial activity against methicillin-resistant Staphylococcus aureus ATCC33591 infected in systemic intraperitoneal infection Kunming mouse model assessed as decrease in inflammation, neutrophil infiltration, alveolar structure destruction, leukocyte infiltration, interstitial thickening in lungs at 5 mg/kg, ip treated at 1 hr post-infection and measured after 7 days by Hematoxylin-Eosin staining based analysis; format: functional, organism-based; details: time 7.0 day
[24] = system: Staphylococcus aureus; test: Antibacterial activity against methicillin-resistant Staphylococcus aureus ATCC33591 infected in systemic intraperitoneal infection Kunming mouse model assessed as increase in animal's survival rate at 20 mg/kg, ip treated at 1 hr post-infection and measured for 7 days; format: functional, organism-based; details: time 7.0 day
[25] = Toxicity against methicillin-resistant Staphylococcus aureus ATCC33591 infected in systemic intraperitoneal infection Kunming mouse model assessed as mild liver damage at 20 mg/kg, ip treated at 1 hr post-infection and measured after 7 days by Hematoxylin-Eosin staining based analysis; format: organism-based; details: in vivo, 168 h, time 7 day
[26] = Cmax in Sprague-Dawley rat at 5 mg/kg, iv; format: ADME, organism-based; details: in vivo
[27] = Half-life in Sprague-Dawley rat at 5 mg/kg, iv; format: ADME, organism-based; details: in vivo
[28] = Observed MRT (0 to infinity) in Sprague-Dawley rat at 5 mg/kg, iv; format: ADME, organism-based; details: in vivo
[29] = Observed apparent volume of distribution in Sprague-Dawley rat at 5 mg/kg, iv; format: ADME, organism-based; details: in vivo, read-out: Vz
[30] = AUC (0 to 24 hrs) in Sprague-Dawley rat at 10 mg/kg, po; format: ADME, organism-based; details: in vivo
[31] = Observed MRT (0 to infinity) in Sprague-Dawley rat at 10 mg/kg, po; format: ADME, organism-based; details: in vivo
[32] = Observed apparent volume of distribution during terminal phase in Sprague-Dawley rat at 10 mg/kg, po; format: ADME, organism-based; details: in vivo, read-out: Vz/F_obs
[33] = system: Escherichia coli; test: Antibacterial activity against Escherichia coli ATCC25922 infected in pyelonephritis C57BL/6 mouse model assessed as recovery of white blood cells count in blood at 3 to 10 mg/kg, iv qd for 3 days administered at 2 days post-infection; format: functional, organism-based; details: dose 3-10 mg/kg, time 3.0 day
[34] = system: Escherichia coli; test: Antibacterial activity against Escherichia coli ATCC25922 infected in pyelonephritis C57BL/6 mouse model assessed as recovery of neutrophils count in blood at 3 to 10 mg/kg, iv qd for 3 days administered at 2 days post-infection; format: functional, organism-based; details: dose 3-10 mg/kg, time 3.0 day
[35] = system: Escherichia coli; test: Antibacterial activity against Escherichia coli ATCC25922 infected in pyelonephritis C57BL/6 mouse model assessed as decrease in IL-6 level in kidney at 3 to 10 mg/kg, iv qd for 3 days administered at 2 days post-infection by ELISA; format: functional, organism-based; details: dose 3-10 mg/kg, time 3.0 day

In the case of `C=C[C@]1(C)C[C@@H](OC(=O)CSc2nc3cc[n+](Cc4ccc(C)cc4)cc3[nH]2)[C@]2(C)[C@H](C)CC[C@]3(CCC(=O)[C@H]32)[C@@H](C)[C@@H]1O.[Br-]`, the solubility at 12 h [1] is reported as 573 µg/mL, the MIC [2] is reported as < 1 µg/mL and the MIC [3] is reported as < 1 µg/mL. It also gave an MIC [4] of 4 µg/mL, an MIC [5] of 4 µg/mL and an MIC [6] of 4 µg/mL. For the same compound, the CC50 at 24 h [7] was > 100 µM, the CC50 at 24 h [8] was > 100 µM and the MIC [9] was < 0.04 µg/mL. The MIC [10] was < 0.04 µg/mL, the MIC [11] was < 0.04 µg/mL and the MIC [12] was < 0.04 µg/mL. For the same compound, the MIC [13] was < 0.04 µg/mL, the Activity [14] was 84.31% and the Activity [15] was “Active; Almost Complete Eradication Of Bacteria Observed”. The Activity [16] was “Active”, the Activity [17] was “Active” and the Activity [18] was “Active”. The Activity [19] was “Active”, the Activity [20] was “Active” and the Activity [21] was “Active”. For the same compound, the Activity [22] was “Active; Superior Efficacy Over Valnemulin Observed”, the Activity [23] was “Active; Nearly Restoration Of Normal Histology Observed” and the Activity [24] was “Active; Slight Decrease In Activity Compared To Lower Dose Of Drug Concentration Observed; Diminished Therapeutic Effects To Drug At Higher Concentrations Observed”. The Activity [25] was “Toxic”, the Cmax [26] was 25600 ng/mL and the half-life [27] was 1.17 h. For the same compound, the MRT inf [28] was 1.14 h, the Vd [29] was 0.511 L/kg and the AUC(0-t) [30] was 14600 ng·h/mL. For the same compound, the MRT inf [31] was 2.46 h, the Vd/F [32] was 1.43 L/kg and the Activity [33] was “Active”. The Activity [34] was “Active” and the Activity [35] was “Dose-dependent-effect”.
